Measured values reported in article PMC8296708, “The pan HDAC inhibitor Givinostat improves muscle function and histological parameters in two Duchenne muscular dystrophy murine models expressing different haplotypes of the LTBP4 gene” (Skeletal Muscle, 2021).
Where two headings read alike, the source gives them in different places.

How the values were obtained:
[1] = Pharmacokinetic study: plasma, blood and quadriceps Givinostat levels after single oral dose (LC-MS/MS); format: in vivo, mdx mice (C57BL/10ScSn-Dmd^mdx/J); conditions: mdx mice; for Kp: quadriceps muscle and plasma
Protocol: For the PK study, C57BL/10ScSn-Dmd^mdx/J (Stock No: 001801) 9-week-old male mice were purchased from The Jackson Laboratories (Bar Harbor, Maine, USA). After 5 days of acclimatization in the animal facility, mdx mice were randomized into 4 treatment groups (28 mice/group; 4 mice/cage) and 1 untreated group (4 mice) based on their BW. Animals were administered with single oral dose of Givinostat at 5, 10, 25, and 37.5 mg/kg and samples were collected at the following time points: 0.5, 1, 1.5, 2, 3, 4, and 6 h after administration.
In the PK study, formulations were prepared suspending Givinostat in 0.5% methylcellulose at the concentrations of 0.5, 1, 2.5, and 3.75 mg/mL. The administered volume was 10 mL/kg to obtain 5, 10, 25, and 37.5 mg/kg dosages.
Mice were maintained under isoflurane anesthesia. Blood samples were collected in two aliquots from the retro-orbital plexus of mice and transferred into tubes containing heparin as anticoagulant (100 USPunits/mL) and then mice were sacrificed by cervical dislocation. One aliquot of 50 μL was diluted with the same volume of water and immediately frozen in dry ice. This blood was analyzed in order to subtract the blood content of Givinostat from the muscle homogenate. The other aliquot of blood was centrifuged for 10 min at 13,000 rpm at 4 °C and plasma was separated and frozen in dry ice. The quadriceps of the right hindlimb was removed, weighed, and then washed twice in 1 mL of PBS pH 7.4 and dried with paper, then it was frozen in dry ice.
Givinostat was determined in mouse plasma (50 μL) following a protein precipitation (200 μL of 1% HCOOH in acetonitrile) and Ostro (Waters) plate filtration. The organic phase was evaporated under a stream of nitrogen; the residue was re-dissolved in the reconstitution solvent (100 μL of 25% CH3CN-75% H2O-0.05% TFA), and 5 μL was analyzed. Givinostat concentrations were measured by LC-MS/MS method, in the calibration range of 0.5–400 ng/mL.
Givinostat was determined in diluted blood (100 μL, 1:2 in water) with a liquid-liquid extraction. Samples were mixed and extracted with 2 mL of diethyl ether and centrifuged, and the organic phase was separated and evaporated under a stream of nitrogen. The residue was re-dissolved in the reconstitution solvent (150 μL of 25% CH3CN-75% H2O-0.05% TFA), sonicated, and filtered (regenerated cellulose syringe filters), and 5 μL was analyzed by LC-MS/MS method. The calibration range of the method was 1–200 ng/mL.
Mouse quadriceps were homogenized in PBS pH = 7.4 (1:10 w/v) with ultrasonic homogenizer (Sonoplus Mini20 - Bandelin) maintaining the samples in an ice bath. Quadricep homogenate (100 μL) was added with 200 μL of 0.5% TFA in CH3CN, vortexed, and centrifuged. Then, 100 μL of supernatant was diluted with H2O (1:2). Samples were filtered (regenerated cellulose syringe filters) and aliquots of 5 μL were analyzed. Givinostat concentrations were measured by LC-MS/MS method, in the calibration range of 1–40 ng/mL.
PK parameters were evaluated on mean curves using conventional non-compartmental methodology by the software KineticaTM v. 5.1. Quadriceps concentrations were expressed as nanograms per gram of muscle, this value was obtained by multiplying the homogenate concentrations obtained for the homogenate volume, then subtracting the residual blood content, as reported in literature, considering the measured blood concentrations and dividing for the muscle weight.

mdx mice = assay: Histopathological evaluation of severity of myodystrophy in mdx mice; format: in vivo, mouse (C57BL/10ScSn-Dmd^mdx/J); conditions: T16
Protocol: In these experiments, the histopathological evaluation of muscle inflammatory infiltrate, adipose tissue deposition, regeneration, and degeneration of the muscular tissue was also performed. The severity of myodystrophy in the different muscles (TA, GAS and DIA) was quantified through a weighted histopathological method that considered some parameters scored by severity and extension of the injury: muscle degeneration/necrosis, regeneration, inflammatory infiltrate, interstitial reaction, and adipose tissue deposition. Each parameter was classified by severity (mild = 1, moderate = 2, and severe = 3) and extension (focal = 1, multifocal = 2, and diffuse = 3). The individual severity score was calculated for each animal and an average score per group was calculated.

[2] = male, C57BL/10ScSn-Dmd^mdx/J (mdx), mouse, blood, 5 mg/kg single oral dose
[3] = male, C57BL/10ScSn-Dmd^mdx/J (mdx), mouse, blood, 10 mg/kg single oral dose
[4] = male, C57BL/10ScSn-Dmd^mdx/J (mdx), mouse, blood, 25 mg/kg single oral dose
[5] = male, C57BL/10ScSn-Dmd^mdx/J (mdx), mouse, blood, 37.5 mg/kg single oral dose
[6] = male, C57BL/10ScSn-Dmd^mdx/J (mdx), mouse, plasma, 5 mg/kg single oral dose
[7] = male, C57BL/10ScSn-Dmd^mdx/J (mdx), mouse, plasma, 10 mg/kg single oral dose
[8] = male, C57BL/10ScSn-Dmd^mdx/J (mdx), mouse, plasma, 25 mg/kg single oral dose
[9] = male, C57BL/10ScSn-Dmd^mdx/J (mdx), mouse, plasma, 37.5 mg/kg single oral dose

**Q.** With `CCN(CC)Cc1ccc2cc(COC(=O)Nc3ccc(C(=O)NO)cc3)ccc2c1` [Givinostat] as the compound, how does the “Detectability in plasma, blood and muscle samples after oral treatment” value ([1]; all doses investigated (5-37.5 mg/kg p.o.)) read?
**A.** detectable in all plasma, blood, and muscle samples up to 6 h

**Q.** And the blood plasma ratio ([1]; male, C57BL/10ScSn-Dmd^mdx/J (mdx), mouse, blood and plasma, 5 mg/kg single oral dose, read-out: AUCtot Blood/Plasma ratio)?
**A.** 1.6

**Q.** And the blood plasma ratio ([1]; male, C57BL/10ScSn-Dmd^mdx/J (mdx), mouse, blood and plasma, 25 mg/kg single oral dose, read-out: AUCtot Blood/Plasma ratio)?
**A.** 1.5

**Q.** And the blood plasma ratio ([1]; male, C57BL/10ScSn-Dmd^mdx/J (mdx), mouse, blood and plasma, 37.5 mg/kg single oral dose, read-out: AUCtot Blood/Plasma ratio)?
**A.** 1.4

**Q.** What about the blood plasma ratio ([1]; male, C57BL/10ScSn-Dmd^mdx/J (mdx), mouse, blood and plasma, mean over 5, 10, 25, 37.5 mg/kg oral doses, read-out: AUCtot Blood/Plasma ratio, mean) of the same compound?
**A.** 1.6

**Q.** What about the Cmax ([1]; male, C57BL/10ScSn-Dmd^mdx/J (mdx), mouse, blood, po, 5 mg/kg, blood, 5 mg/kg single oral dose, read-out: Cmax) of the same compound?
**A.** 35.1 ng/mL

**Q.** What about the Cmax ([1]; male, C57BL/10ScSn-Dmd^mdx/J (mdx), mouse, blood, po, 10 mg/kg, blood, 10 mg/kg single oral dose, read-out: Cmax) of the same compound?
**A.** 170 ng/mL

**Q.** What about the Cmax ([1]; male, C57BL/10ScSn-Dmd^mdx/J (mdx), mouse, blood, po, 25 mg/kg, blood, 25 mg/kg single oral dose, read-out: Cmax) of the same compound?
**A.** 639 ng/mL

**Q.** What about the Cmax ([1]; male, C57BL/10ScSn-Dmd^mdx/J (mdx), mouse, blood, po, 37.5 mg/kg, blood, 37.5 mg/kg single oral dose, read-out: Cmax) of the same compound?
**A.** 1120 ng/mL

**Q.** What about the Cmax ([1]; male, C57BL/10ScSn-Dmd^mdx/J (mdx), mouse, plasma, po, 5 mg/kg, plasma, 5 mg/kg single oral dose, read-out: Cmax) of the same compound?
**A.** 24 ng/mL

**Q.** And the Cmax ([1]; male, C57BL/10ScSn-Dmd^mdx/J (mdx), mouse, plasma, po, 10 mg/kg, plasma, 10 mg/kg single oral dose, read-out: Cmax)?
**A.** 96.7 ng/mL

**Q.** What about the Cmax ([1]; male, C57BL/10ScSn-Dmd^mdx/J (mdx), mouse, plasma, po, 25 mg/kg, plasma, 25 mg/kg single oral dose, read-out: Cmax) of the same compound?
**A.** 416 ng/mL

**Q.** And the Cmax ([1]; male, C57BL/10ScSn-Dmd^mdx/J (mdx), mouse, plasma, po, 37.5 mg/kg, plasma, 37.5 mg/kg single oral dose, read-out: Cmax)?
**A.** 807 ng/mL

**Q.** And the Kp ([1]; male, C57BL/10ScSn-Dmd^mdx/J (mdx), mouse, po, 5 mg/kg, 5 mg/kg single oral dose, read-out: AUCtot Muscle/Plasma ratio)?
**A.** 6.2

**Q.** What about the Kp ([1]; male, C57BL/10ScSn-Dmd^mdx/J (mdx), mouse, po, 10 mg/kg, 10 mg/kg single oral dose, read-out: AUCtot Muscle/Plasma ratio) of the same compound?
**A.** 5.8

**Q.** What about the Kp ([1]; male, C57BL/10ScSn-Dmd^mdx/J (mdx), mouse, po, 25 mg/kg, 25 mg/kg single oral dose, read-out: AUCtot Muscle/Plasma ratio) of the same compound?
**A.** 2.8

**Q.** And the Kp ([1]; male, C57BL/10ScSn-Dmd^mdx/J (mdx), mouse, po, 37.5 mg/kg, 37.5 mg/kg single oral dose, read-out: AUCtot Muscle/Plasma ratio)?
**A.** 3.2

**Q.** And the Kp ([1]; male, C57BL/10ScSn-Dmd^mdx/J (mdx), mouse, po, 37.5 mg/kg, mean over 5, 10, 25, 37.5 mg/kg oral doses, read-out: AUCtot Muscle/Plasma ratio, mean)?
**A.** ~4.5

**Q.** What about the Cmax ([1]; male, C57BL/10ScSn-Dmd^mdx/J (mdx), mouse, quadriceps muscle, po, 5 mg/kg, muscle (quadriceps), 5 mg/kg single oral dose, read-out: Cmax) of the same compound?
**A.** 117 ng/g

**Q.** What about the Cmax ([1]; male, C57BL/10ScSn-Dmd^mdx/J (mdx), mouse, quadriceps muscle, po, 10 mg/kg, muscle (quadriceps), 10 mg/kg single oral dose, read-out: Cmax) of the same compound?
**A.** 197 ng/g

**Q.** And the Cmax ([1]; male, C57BL/10ScSn-Dmd^mdx/J (mdx), mouse, quadriceps muscle, po, 25 mg/kg, muscle (quadriceps), 25 mg/kg single oral dose, read-out: Cmax)?
**A.** 607 ng/g

**Q.** And the Cmax ([1]; male, C57BL/10ScSn-Dmd^mdx/J (mdx), mouse, quadriceps muscle, po, 37.5 mg/kg, muscle (quadriceps), 37.5 mg/kg single oral dose, read-out: Cmax)?
**A.** 1180 ng/g

**Q.** What about the blood plasma ratio ([1]; male, C57BL/10ScSn-Dmd^mdx/J (mdx), mouse, whole blood and plasma, 10 mg/kg single oral dose, read-out: AUCtot Blood/Plasma ratio) of the same compound?
**A.** 1.8

**Q.** What about the AUC [1, 2] of the same compound?
**A.** 156 ng·h/mL

**Q.** And the Tmax [1, 2]?
**A.** 3 h

**Q.** What about the AUC [1, 3] of the same compound?
**A.** 458 ng·h/mL

**Q.** And the Tmax [1, 3]?
**A.** 2 h

**Q.** And the AUC [1, 4]?
**A.** 1810 ng·h/mL

**Q.** What about the Tmax [1, 4] of the same compound?
**A.** 1.5 h

**Q.** What about the AUC [1, 5] of the same compound?
**A.** 2180 ng·h/mL

**Q.** And the Tmax [1, 5]?
**A.** 0.5 h

**Q.** And the Tmax ([1]; male, C57BL/10ScSn-Dmd^mdx/J (mdx), mouse, muscle (quadriceps), 5 mg/kg single oral dose)?
**A.** 3 h

**Q.** What about the Tmax ([1]; male, C57BL/10ScSn-Dmd^mdx/J (mdx), mouse, muscle (quadriceps), 10 mg/kg single oral dose) of the same compound?
**A.** 2 h

**Q.** And the Tmax ([1]; male, C57BL/10ScSn-Dmd^mdx/J (mdx), mouse, muscle (quadriceps), 25 mg/kg single oral dose)?
**A.** 2 h

**Q.** What about the Tmax ([1]; male, C57BL/10ScSn-Dmd^mdx/J (mdx), mouse, muscle (quadriceps), 37.5 mg/kg single oral dose) of the same compound?
**A.** 0.5 h

**Q.** And the AUC [1, 6]?
**A.** 95.2 ng·h/mL

**Q.** And the Tmax [1, 6]?
**A.** 0.5 h

**Q.** And the AUC [1, 7]?
**A.** 261 ng·h/mL

**Q.** And the Tmax [1, 7]?
**A.** 2 h

**Q.** What about the AUC [1, 8] of the same compound?
**A.** 1230 ng·h/mL

**Q.** And the Tmax [1, 8]?
**A.** 1.5 h

**Q.** What about the AUC [1, 9] of the same compound?
**A.** 1510 ng·h/mL

**Q.** And the Tmax [1, 9]?
**A.** 0.5 h

**Q.** And the “AUCtot Muscle/Plasma ratio, mean” value ([1]; mean over 5, 10, 25, 37.5 mg/kg oral doses, listed as ITF2357)?
**A.** 4.5

**Q.** What about the AUCtot ([1]; muscle (quadriceps), 5 mg/kg single oral dose) of the same compound?
**A.** 594.4 ng·h/g

**Q.** And the AUCtot ([1]; muscle (quadriceps), 10 mg/kg single oral dose)?
**A.** 1511.9 ng·h/g

**Q.** And the AUCtot ([1]; muscle (quadriceps), 25 mg/kg single oral dose)?
**A.** 3511.2 ng·h/g

**Q.** And the AUCtot ([1]; muscle (quadriceps), 37.5 mg/kg single oral dose)?
**A.** 4804.6 ng·h/g

**Q.** And the Cmax ([1]; plasma, 5 mg/kg single oral dose, listed as ITF2357, 5 mg/kg)?
**A.** 24.17 ng/mL

**Q.** What about the Cmax ([1]; plasma, 37.5 mg/kg single oral dose, listed as ITF2357, 37.5 mg/kg) of the same compound?
**A.** 807.39 ng/mL

**Q.** What about the “Histological evaluation of inflammatory infiltrate, adipose tissue deposition, regeneration, degeneration” value (mdx mice) of the same compound?
**A.** not significantly different among the treatment groups
